Data set [1] concerns VK2/E6E7 cells. Briefly: Intracellular accumulation of digoxin in cytokine-stimulated VK2/E6E7 cells. The format is cell-based, human. The settings on record: 5 µM digoxin, 1 h; after cytokine stimulation. The procedure: A 500 μL sample from each well was stored and the remainder of the buffer was aspirated from the plates. The wells were then washed twice with ice-cold PBS to stop any further uptake of the drug. To each well, 500 μL of ddH2O was added and cells were removed using a cell scraper. The cell suspension was then transferred to individual tubes for mechanical cell lysis using a 21-gauge needle followed by a freeze-thaw cycle at -80 °C. Protein content for normalisation calculations was measured via a bicinchoninic acid assay. The solution was then centrifuged at 14,000× g for 15 min and the supernatants were stored at -80 °C until analysis by LC-MS/MS. Samples were centrifuged at 14,800 rpm for 5 min to remove cell debris. […] Analysis was performed on a Thermo Surveyor TSQ Quantum system using electrospray ionisation in positive ion mode. Samples (5 μL) were applied to a C18 column (Gemini 3μ, 150 × 3.0 mm, Phenomenex, Macclesfield, UK) maintained at 40 °C. […] The flow rate for both methods was 350 μL/min. […] Cytokines were reconstituted in sterile and distilled water and added individually to cell cultures at the following concentrations: TNF-α (200 pg/mL), IL-1β (8 ng/mL), IL-6 (5 ng/mL) and IL-8 (100 ng/mL) were. […] Cells were stimulated for either drugs, cytokines or hormones for 72 h, before harvesting by centrifugation at 300× g for 10 min at 4 °C. […] All cell line stimulation experiments were conducted as a minimum of three biological repeats.

The subject of data set [2] is drug transporter mRNA expression in HEC-1A cells. Briefly: Drug transporter mRNA expression (RT-qPCR) in stimulated HEC-1A cells. The format is cell-based, human. To be noted: for Change in expression of drug transporters (panel of 17): 72 h stimulation. The protocol:
(§1) Control was 0.1% DMSO with no drug. Cytokines were reconstituted in sterile and distilled water and added individually to cell cultures at the following concentrations: TNF-α (200 pg/mL), IL-1β (8 ng/mL), IL-6 (5 ng/mL) and IL-8 (100 ng/mL) were. […] Cells were stimulated for either drugs, cytokines or hormones for 72 h, before harvesting by centrifugation at 300× g for 10 min at 4 °C. For Lactobacillus crispatus a final MoI of 10 was used (10:1, bacterial cells:mammalian cell ratio) for co-culture in both HEC-1A and VK2/E6E7 cell lines. For Candida albicans, a final MoI of 1 for HEC-1A cells and 0.25 for VK2/E6E7 cells was used. Cells were incubated with fungal cells at 37 °C/5% CO2 for 24 h. All cell line stimulation experiments were conducted as a minimum of three biological repeats.
(§2) RNA extraction was performed using the RNeasy® Mini Kit (Qiagen, Manchester, UK). Cells were lysed by suspension in 600 μL of RLT Buffer with 1% β-mercaptoethanol (Sigma-Aldrich) and mechanical lysis into a QIAshredder (Qiagen). After the addition of 70% ethanol, the solution was loaded onto RNeasy columns for RNA purification as per the manufacturer’s instructions. DNase treatment was 15 min at room temperature. RNA was eluted from the columns with 30 μL of RNase-free ddH2O. Tapestation analysis was performed using an Agilent 2200 Tapestation system to determine the integrity of the RNA.
(§3) Synthesis of cDNA was performed using a Superscript® VILO™ kit (Life Technologies, Paisley, UK). Reverse transcription was performed at 25 °C for 10 min, 42 °C for 60 min and 85 °C for 5 min. The cDNA was then stored at −20 °C until RT-PCR assays.
(§4) SYBRgreen® PrecisionTM 2× qPCR Mastermix with ROX quencher (Primer Design, Southampton, UK) was used for all RT-qPCR assays. Individual primers were designed to target the HPRT1 and RPLP0 housekeeper genes (selected from an initial panel based on SD scores as a measure of the consistency of expression amongst all samples) in addition to seventeen ARV-associated drug transporters (9 ABC transporters and 8 SLC transporters) replicating the system contained in the TaqMan® 96-well Drug Transporter Array system (Life Technologies, Paisley, UK). Real-time quantitative PCR was performed using the 7900HT Fast Real-Time PCR system and data was analysed using the SDS 2.4 software (Applied Biosystems, Waltham, MA, USA). Cycling conditions were: 95 °C for 5 min, followed by 40 cycles of denaturation at 95 °C for 10 s, annealing at 60 °C for 10 s and extension at 72 °C for 10 s. Relative transcript levels in drug-stimulated cells were determined using the comparative Ct method (ΔΔCt method). Fold-change values of ±2–3 were considered minor, ±3–5 as moderate and >±5 as high.
(In general: In qPCR the cycle at which signal appears reflects the starting amount.)

Data set [3] relates to drug transporter mRNA expression in VK2/E6E7 cells. Briefly: Drug transporter mRNA expression (RT-qPCR) in stimulated VK2/E6E7 cells. The format is cell-based, human. To be noted: for Expression of uptake transporters OATP8 and CNT3 / P-gp mRNA level: 72 h cytokine stimulation. The procedure:
as §1, §2, §3, §4

Data set [4] can be described thus: Bi-directional permeability (Papp) across HEC-1A dual chamber (Transwell) barrier model. Type of data set: in vitro ADME. The settings on record: human. The protocol: The apical chambers of 12-well polycarbonate and polyester systems (Corning Costar Corp, Cambridge, UK) were seeded with different densities of HEC-1A cells in 500 µL of the medium while 1500 µL culture medium was added to the basolateral chamber. -Medium in both chambers was changed every 48–72 h.

The test system of data set [5] is HEC-1A cell layers.
Protocol: (§5) All transport experiments were undertaken over a 2-h period (unless stated) at 37 °C in HBSS supplemented with 1% HEPES buffer (Sigma-Aldrich) at pH 7.4 as reported [22]. HBSS was used to prevent the drug from binding to albumin present in cell culture media. All solutions were warmed to 37 °C and experiments were performed on a heated orbital shaker set at 50 RPM. […] Prior to the initiation of the drug transport experiments, TEER was measured. Cell layers were then washed twice with pre-warmed HBSS+1%HEPES transport buffer and equilibrated in the same solution for 30 min at 37 °C. […] The experiment was initiated when either the donor or receiver solutions were added to the respective compartments. Following the addition of donor solution, 20 µL samples were taken immediately from donor and receiver compartments, T = 0 (for assessment of initial concentration and background radioactivity, respectively). Transwells® were then placed on an orbital shaker set at 50 RPM. Samples, either 200 µL (apical) or 600 µL (basolateral), were taken from the receiver compartments at time points T = 30, T = 60, T = 90 and T = 120 and added to polyethylene liquid scintillation vials. Samples were taken in triplicate and replaced with equivalent volumes of the receiver solution. After final sampling, TEER was measured to confirm that there was no disruption to the epithelial barrier during the experimental procedure. Radioactive samples were mixed with 4 mL of scintillation fluid (Fisher Scientific, Waltham, MA, USA) and analysed using a liquid scintillation counter (Beckman Coulter, Brea, CA, USA). The semipermeable membranes of the Transwell® inserts were cut and also placed into scintillation vials for mass balance measurements.
The nature of data set [6]: in vitro. The settings on record: human, pH 7.4.
Protocol: as §5
For data set [7], the system named is HEC-1A cells. Briefly: Cytokine production of HEC-1A cells stimulated with PAMPs (Luminex). Type of data set: cell-based, human. The settings on record: for Pro-inflammatory cytokine production: 24 h stimulation. The procedure:
HEC-1A cells were stimulated with different PAMPs (pam 3CSK4, lipoteichoic acid, poly(I:C), Escherichia coli lipopolysaccharide, FSL-1, flagellin, imiquimod, zymosan) (InvivoGen, San Diego, CA, USA) diluted in cell culture media with incubation at 37 °C in 5% CO2 for 24 h. PAMPs were titrated to determine the optimal concentration for cytokine stimulation. Blank samples contained media only. After 24 h, the supernatant was collected for cytokine detection. Cytokine levels were determined using a Magnetic Luminex® Performance Assay kit (R&D Systems, Minneapolis, MN, USA) following the manufacturer’s instructions. Analyte-specific antibodies were pre-coated onto colour-coded microparticles and detection was carried out with a biotinylated antibody cocktail specific to the target cytokines and a streptavidin-phycoerythrin conjugate. Samples were resuspended in 100 µL of Washing Buffer and measured for a phycoerythrin-derived signal using a Luminex® 100 instrument.

For data set [8], the system named is HEC-1A cells. Put plainly: Cell-associated drug and distribution between apical and basolateral compartments after absorptive permeability assay.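 Also: transwell transport run over 2 h at 37 °C, radiolabelled drug quantified by liquid scintillation counting, with insert membranes also counted for mass balance.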 The format is in vitro ADME, human.
Protocol: as §5
In data set [9] the test system is HEC-1A barrier model. Put plainly: Permeability of labelled drug across HEC-1A model on coadministration with a second ARV. Type of data set: in vitro ADME, human. The settings on record: labelled drug 10 µM.
Protocol: All transport experiments were undertaken over a 2-h period (unless stated) at 37 °C in HBSS supplemented with 1% HEPES buffer (Sigma-Aldrich) at pH 7.4 as reported [22]. HBSS was used to prevent the drug from binding to albumin present in cell culture media. All solutions were warmed to 37 °C and experiments were performed on a heated orbital shaker set at 50 RPM. […] Prior to the initiation of the drug transport experiments, TEER was measured. Cell layers were then washed twice with pre-warmed HBSS+1%HEPES transport buffer and equilibrated in the same solution for 30 min at 37 °C. […] The experiment was initiated when either the donor or receiver solutions were added to the respective compartments. Following the addition of donor solution, 20 µL samples were taken immediately from donor and receiver compartments, T = 0 (for assessment of initial concentration and background radioactivity, respectively). Transwells® were then placed on an orbital shaker set at 50 RPM. […] After final sampling, TEER was measured to confirm that there was no disruption to the epithelial barrier during the experimental procedure. Radioactive samples were mixed with 4 mL of scintillation fluid (Fisher Scientific, Waltham, MA, USA) and analysed using a liquid scintillation counter (Beckman Coulter, Brea, CA, USA). […]
Data set [10] concerns HEC-1A cell layers. Put plainly: Permeability across HEC-1A cell layers stimulated with poly(I:C). The settings on record: p > 0.05, ANOVA.
Protocol: as §5
Data set [11] concerns HEC-1A monolayer. Put plainly: Darunavir transfer across low-pH-adapted HEC-1A monolayers at apical pH 7.5 or 5.5 (LC-MS/MS). The format is in vitro ADME, human. The settings on record: MK571 (50 µM) in donor compartment; apical pH 5.5.
Protocol: Cell lines were from American Type Culture Collection (ATCC, Manassas, VA, USA).
Samples were centrifuged at 14,800 rpm for 5 min to remove cell debris. […] Analysis was performed on a Thermo Surveyor TSQ Quantum system using electrospray ionisation in positive ion mode. Samples (5 μL) were applied to a C18 column (Gemini 3μ, 150 × 3.0 mm, Phenomenex, Macclesfield, UK) maintained at 40 °C. […] Digoxin and digitoxigenin were resolved using gradient elution with a mobile phase consisting of A: 30 mM ammonium formate, pH 3.4 and B: methanol; 70% B was increased to 100% B over 3 min before returning to initial conditions for 3 min re-equilibration for a total run time of 6 min. The flow rate for both methods was 350 μL/min.
As described above, HEC-1A cells were cultured under conditions that allowed adaptation to lower pH by incremental reduction of pH of the medium from 7.4 to 5.5. […] The pH of the medium in the basal compartment was pH 7.5 for all experiments whereas medium at pH 7.5 or pH 5.5 was added to apical compartments. Non-adapted cell cultures in pH 7.5 medium both in the apical and basal compartments were included as controls.
The mark [12] stands for this setting: 72 h hormone stimulation, vs ethanol control, increased.

Read-outs that look alike come from different tables or passages of the source.

TNF-α: in data set [1], the “Effect on intracellular uptake of digoxin” value (“Effect … of digoxin” for short) is recorded as “significantly reduced”. In addition, the “Change in expression of drug transporters (panel of 17)” value (“Change in expression” below) in [2] was “No changes”. Further, in [3], the “Expression of uptake transporters OATP8 and CNT3” value was “induce the expression”; the “P-gp mRNA level” value is reported as “increased”.
For `C[C@]12CC[C@@H]3c4ccc(O)cc4CC[C@H]3[C@@H]1CC[C@@H]2O` [β-estradiol], the “BCRP mRNA expression, fold-change” value in data set [2] (setting [12]) worked out at 2.64 ± 0.44 fold. In addition, in data set [3] (setting [12]), the “CNT3 mRNA expression, fold-change” value came out at 3.70 ± 1.43 fold and the “MRP3 mRNA expression, fold-change” value is recorded as 2.14 ± 0.30 fold.
IL-6: pro-inflammatory cytokine: the “Effect … of digoxin” value in data set [1] was “not”. Also, the “Change in expression” value in [2] was “No changes”. Moreover, in data set [3], the “Expression of uptake transporters OATP8 and CNT3” value was “induce the expression”; the “P-gp mRNA level” value is listed as “increased”.
The Papp is a coefficient for how fast a substance crosses the barrier. As for `OC[C@@H](O)[C@@H](O)[C@H](O)[C@H](O)CO` [mannitol], the Papp A→B at 2 h in data set [4] (pH 7.4, Absorptive Papp of mannitol, 1% DMSO in donor compartment (initial dapivirine assay)) was in the range of 2.5 to 2.61 ×10⁻⁶ cm/s; in data set [4] (pH 7.4, Absorptive Papp of mannitol, paracellular marker in the tenofovir permeability assay), 2.09 to 3.1 ×10⁻⁶ cm/s. Moreover, the Papp B→A at 2 h in [4] (pH 7.4, Secretory Papp of mannitol, 1% DMSO in donor compartment (initial dapivirine assay)) is 5.1 to 6.81 ×10⁻⁶ cm/s; in data set [4] (pH 7.4, Secretory Papp of mannitol, paracellular marker in the tenofovir permeability assay) it was 2.7 to 2.85 ×10⁻⁶ cm/s. Moreover, the Papp at 2 h in [4] (pH 7.4, mannitol measured simultaneously in drug permeability assays, read-out: Papp (barrier integrity control)) was under 4 ×10⁻⁶ cm/s. The Papp in [5] fell in the range of 2.23 to 2.47 ×10⁻⁶ cm/s. For the same compound, the Papp at 2 h, 10 µM in data set [6] fell in the range of 1.43 to 2.17 ×10⁻⁶ cm/s.
Turning to IL-1β: pro-inflammatory cytokine, the “Effect … of digoxin” value in [1] is given as “significantly reduced”. In [2], the “Change in expression” value was “No changes”. For the same compound, in [3], the “Expression of uptake transporters OATP8 and CNT3” value is “induce the expression”; the “P-gp mRNA level” value is “increased”.
Turning to poly(I:C), the Pro-inflammatory cytokine production entry in data set [7] was “induced production of IL-6, IL-8, IL-1α, GM-CSF and TNF-α”. Further, in [7] (titration 1–50 µg/ml), the “Optimum concentration for cytokine stimulation” value is on record as 25 µg/mL.
Regarding `C[C@H](Cn1cnc2c(N)ncnc21)OCP(=O)(O)O` [tenofovir, Tenofovir], the Papp A→B at 2 h in data set [4] (pH 7.4, apical to basolateral, over concentration range (tenofovir 0.1–100 µM; darunavir 0.1–20 µM, 0.01% DMSO), read-out: Absorptive permeability Papp) lay within 1.76 to 2.06 ×10⁻⁶ cm/s. In addition, the Papp B→A at 2 h in [4] (pH 7.4, basolateral to apical, over concentration range (tenofovir 0.1–100 µM; darunavir 0.1–20 µM, 0.01% DMSO), read-out: Secretory permeability Papp) lay within 1.46 to 1.64 ×10⁻⁶ cm/s. For the same compound, the efflux ratio at 2 h in [4] (pH 7.4, over concentration range tested, read-out: Efflux ratio (secretory/absorptive)) lay within 0.77 to 0.83. Further, the “% Drug Distribution Apical” value in data set [8] (0.1 μM) was 97.03 ± 0.28%; in [8] (1 μM), 96.85 ± 0.29%; in [8] (10 μM) it was 96.91 ± 0.27%; in [8] (100 μM) it was 96.59 ± 0.41%. Moreover, the “% Drug Distribution Basolateral” value in [8] (0.1 μM) stood at 2.63 ± 0.25%; in [8] (1 μM), 2.73 ± 0.24%; in [8] (10 μM) it was 2.79 ± 0.25%; in data set [8] (100 μM) it was 2.99 ± 0.36%. Moreover, the “% Drug Distribution Cell-Associated” value came to 0.34 ± 0.06% in [8] (0.1 μM), 0.42 ± 0.08% in [8] (1 μM), 0.3 ± 0.06% in [8] (10 μM) and 0.42 ± 0.17% in data set [8] (100 μM). The “Recovery from the apical compartment after absorptive permeability assays” value in [8] (% of initial concentration, no Poloxamer) is on record as 96–97%. Moreover, in data set [8] (after absorptive permeability assays), the “Cell-associated drug (HEC-1A cells)” value is given as at most 0.5%. The “Absorptive permeability on coadministration with dapivirine” value in data set [9] (dapivirine 0–10 µM) is “not altered”. Besides, in data set [9] (darunavir 0–10 µM), the “Absorptive or secretory permeability on coadministration with darunavir” value is given as “did not significantly alter”. The Papp in [5] was 1.45 ± 0.21 ×10⁻⁶ cm/s. The same compound came in with a Papp at 2 h, 10 µM in data set [6] of 1.06 ± 0.05 ×10⁻⁶ cm/s. Further, in data set [10], the “Difference in Papp (A-B or B-A), poly(I:C)-stimulated vs unstimulated cell layers” value is reported as “no significant differences”.
With IL-8: pro-inflammatory cytokine, the “Change in expression” value in data set [2] is “No changes”.
For flagellin, in data set [7], the Pro-inflammatory cytokine production result was “stimulated production of IL-8, GM-CSF and TNF-α”.
Consider `CN(C)C(=O)CCSC(SCCC(=O)O)c1cccc(/C=C/c2ccc3ccc(Cl)cc3n2)c1` (stereo not shown) [MK571], for which the “Effect on absorptive transfer of darunavir” value in data set [11] is “reduced the absorptive transfer of darunavir to the level observed at pH 7.5”.

Values taken from article PMC9504208, “Comprehensive Study of Antiretroviral Drug Permeability at the Cervicovaginal Mucosa via an In Vitro Model” (Pharmaceutics, 2022).
